Target: cerebral receptor sites of the benzodiazepines
Test: not given
Conditions: 3H-Diazepam; constant used in the formula for Ki; read-out: KD (constant of affinity); cited from earlier work
In the case of `CN1C(=O)CN=C(c2ccccc2)c2cc(Cl)ccc21` [3H Diazepam], the Kd is listed as 2.74 µM.

Target: cerebral receptor sites of the benzodiazepines
Test: Affinity for the cerebral receptor sites of the benzodiazepines (displacement of 3H-Diazepam, method of Mohler et al.)
Conditions: displacement of 3H-Diazepam from its binding site; Ki calculated from IC50, C and KD
Source text: The products have been tested according to the method of Mohler et al., Life Science, 1977, 20, 2101, which is relied on herein.
With `Clc1cnc2ccccc2c1CCC1CCNCC1` [Example 1, 3-Chloro-4-[2-(4-piperidyl)-ethyl]-quinoline] the Ki was 2 µM. Work on `COc1ccc2ncc(Cl)c(CCC3CCNCC3)c2c1` [Example 3, 3-Chloro-6-methoxy-4-[2-(4-piperidyl)-ethyl]-quinoline] yielded a Ki of 12 µM. `Cc1nc2ccccc2c(CCC2CCNCC2)c1Cl` [Example 4, 2-Methyl-3-chloro-4-[2-(4-piperidyl)-ethyl]-quinoline] showed a Ki of 1 µM. Compound `Clc1c(-c2ccccc2)nc2ccccc2c1CCC1CCNCC1` [Example 5, 2-Phenyl-3-chloro-4-[2-(4-piperidyl)-ethyl]-quinoline] has a Ki of 0.5 µM. `Clc1cnc2ccccc2c1CC1CCNCC1` [Example 6, 3-Chloro-4-[(4-piperidyl)-methyl]-quinoline] gave a Ki of 5 µM. `Cc1cccc2c(CC3CCNCC3)c(Cl)cnc12` [Example 8, 3-Chloro-8-methyl-4-[(4-piperidyl)-methyl]-quinoline] gave a Ki of 10 µM. Work on `Clc1cc2ccccc2nc1CCC1CCNCC1` [Example 9, 3-Chloro-2-[2-(4-piperidyl)-ethyl]-quinoline] yielded a Ki of 5 µM.

Reference: patent publication US4493838A, “Medicaments containing derivatives of 3-chloro-quinoline” (Pharmindustrie, priority 1980, dated 1985)
